For test [1], the target named is T1, 5-hydroxytryptamine receptor 2B (Homo sapiens, UniProt P41595). Briefly: Antagonist activity at 5HT2B (unknown origin) expressed in CHOK1 cells assessed as inhibition of agonist-induced effect preincubated for 60 mins at 37 degC followed by 15 mins incubation at room temperature and subsequent agonist addition measured for 100 secs by fluorescence assay. Type of test: functional, cell-based.

Test [2] concerns the target T1, 5-hydroxytryptamine receptor 2B. Briefly: Displacement of [3H]LSD from 5HT2B (unknown origin) after 1.5 hrs by microbeta scintillation counting method.
Test [3] has as its system Mus musculus. The test can be described thus: Protection against castor oil-induced diarrhea in C57BL/6 mouse assessed as improvement in stool consistency at 10 mg/kg, po pretreated for 15 mins followed by castor oil addition measured over 4 hrs. Type of test: functional, organism-based.
The subject of test [4] is Mus musculus. Briefly: Protection against castor oil-induced diarrhea in C57BL/6 mouse assessed as improvement in fecal output at 10 mg/kg, po pretreated for 15 mins followed by castor oil addition measured over 4 hrs. Type of test: functional, organism-based.
The target of test [5] is T1, 5-hydroxytryptamine receptor 2B. The test can be described thus: Antagonist activity at 5HT2B (unknown origin) expressed in CHOK1 cells assessed as inhibition of agonist-induced effect at 10 uM preincubated for 60 mins at 37 degC followed by 15 mins incubation at room temperature and subsequent agonist addition measured for 100 secs by fluorescence assay relative to control. Type of test: functional, cell-based.

For test [6], the system named is Mus musculus. Briefly: Protection against castor oil-induced diarrhea in C57BL/6 mouse assessed as improvement in body weight at 10 mg/kg, po pretreated for 15 mins followed by castor oil addition measured over 4 hrs. Type of test: functional, organism-based.

The source made the active and inactive calls. The calls are words filed in the database; no cut-off is given here.

For orientation: IC50 means the midpoint of a concentration-inhibition curve. One may read the Ki as the equilibrium dissociation constant of an inhibitor or competing ligand from its target. Low readings indicate tighter binding, high ones weaker binding. By inhibition is commonly meant the drop in the measured response relative to a control, in per cent.

T1 sequence (P41595 whole entry): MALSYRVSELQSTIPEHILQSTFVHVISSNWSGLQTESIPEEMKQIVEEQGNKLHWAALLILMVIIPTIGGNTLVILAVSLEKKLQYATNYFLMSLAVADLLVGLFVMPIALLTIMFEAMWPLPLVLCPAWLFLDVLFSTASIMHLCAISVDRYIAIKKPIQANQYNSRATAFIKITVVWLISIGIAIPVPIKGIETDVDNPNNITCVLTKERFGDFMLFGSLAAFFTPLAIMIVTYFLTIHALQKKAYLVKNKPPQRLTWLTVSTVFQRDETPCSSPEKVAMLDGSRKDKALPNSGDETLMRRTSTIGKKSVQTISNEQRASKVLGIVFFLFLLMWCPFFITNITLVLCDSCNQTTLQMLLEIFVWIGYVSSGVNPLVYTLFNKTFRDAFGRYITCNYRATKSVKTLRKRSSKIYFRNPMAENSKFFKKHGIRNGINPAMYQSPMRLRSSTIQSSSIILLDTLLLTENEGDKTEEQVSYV

As to `NC1=NC2(CCCCC2)NC(Nc2cc(Br)cc(Br)c2)=N1`, the IC50 in test [1] came out at 215 nM.
Regarding `NC1=NC2(CCCCC2)NC(Nc2cccc(Br)c2)=N1`, the IC50 in test [1] stood at 35.4 nM. Further, the Ki in test [2] was 5.8 nM.
`CN(C)CC/C=C1\c2ccccc2COc2ccccc21` [E-DOXEPIN]: the result with Mus musculus [3] and in the test with Mus musculus [4] was Active.
Regarding `CN(C)CC/C=C1\c2ccc(F)cc2COc2ccccc21`, the inhibition constant Ki in test [2] was found to be 16.6 nM.
Turning to `NC1=NC2(CCCCC2)NC(Nc2cccc(I)c2)=N1`, the half-inhibitory concentration (IC50) in test [1] was 23.3 nM. In test [2], this molecule had an inhibition constant (Ki) of 1.7 nM.
On to `NC1=NC2(CCCCC2)NC(Nc2cccc(O)c2)=N1`, for which the inhibition in test [5] was less than 50%. The molecule also gave a Ki in test [2] of 313 nM.
For `CN(C)CC/C=C1\c2ccc(Br)cc2COc2ccccc21`, the Ki in test [2] was determined as 2.5 nM. The outcome in the test with Mus musculus [3], in the test on Mus musculus [4] and in the test with Mus musculus [6] was Active.
Turning to `NC1=NC2(CCCCC2)NC(Nc2cccc(Cl)c2)=N1`, the concentration for half-maximal inhibition (IC50) in test [1] was found to be 46.9 nM. This molecule gave a Ki in test [2] of 6.3 nM.
In the case of `NC1=NC2(CCCCC2)NC(Nc2cccc(F)c2)=N1`, the IC50 in test [1] stood at 403 nM. The molecule further showed an inhibition constant (Ki) in test [2] of 53.3 nM.
`CN(C)CC/C=C1\c2ccc(Cl)cc2COc2ccccc21`: the affinity in test [2], expressed as Ki, was 3 nM.
For `NC1=NC2(CCCCC2)NC(Nc2cc(F)cc(Br)c2)=N1`, the half-maximal inhibitory concentration (IC50) in test [1] stood at 74.9 nM.
On the same count and under the same terms, next, `CCOC(=O)c1cc(Br)cc(NC2=NC(N)=NC3(CCCCC3)N2)c1`: 1960 nM.
`Cc1cccc(NC2=NC(N)=NC3(CCCCC3)N2)c1`: the 50% inhibitory concentration (IC50) in test [1] worked out at 459 nM. In test [2], this molecule registered a Ki of 19.8 nM.
The like results for `NC1=NC2(CCCCC2)NC(Nc2ccccc2)=N1` were, in that order, 1640 nM and 151 nM.

For the origin of these results see ChEMBL document CHEMBL4266008, “Exploring Halogen Bonds in 5-Hydroxytryptamine 2B Receptor-Ligand Interactions” (ACS Med Chem Lett, 2018).
